Experimental findings from patent publication US11358973B2, “Di(hetero)aryl macrocyclic compound for inhibiting protein kinase activity” (Shenzhen TargetRx, Inc., priority 2018, dated 2022) are described below.

As a reminder, the AUC(0-t) is the area under the concentration-time curve up to a stated or last time point. In general, Cmax refers to the peak of the concentration-time curve. For orientation: Tmax means the time at which the peak concentration occurs. One may read the half-life as the time in which the quantity being followed falls by half. As a reminder, the bioavailability is the share of a dose that reaches the circulation, judged against a reference dose that is usually intravenous. Usually IC50 stands for the concentration that inhibits the measured activity by half.

Data set [1] can be described thus: Pharmacokinetic experiment in rats. The following applies: rat; for AUC(0-t) / Cmax / Tmax / half-life / AUC(0-inf) / MRT inf / bioavailability: male, Sprague-Dawley, plasma; for AUC(0-inf): read-out: AUCINF_pred; for MRT inf: read-out: MRTINF_pred; for bioavailability: PO 10 mg/kg vs IV 3 mg/kg. The class given is in vivo, Sprague-Dawley rats. Details: Cl_pred (L/kg): unit not given here. The procedure: 6 male Sprague-Dawley rats (7-8 weeks old, and weighing approximately 210 g) were divided into 2 groups with 3 rats in each group. The rats were intravenously or orally administered a single dose of compounds (3 mg/kg intravenously, 10 mg/kg orally) to compare pharmacokinetic differences.
The rats were feeded on standard food and water. Fasting was started 16 hours before the test. The drug was dissolved in PEG400 and dimethyl sulfoxide. The blood samples were collected from eyelids at the time points of 0.083 hour, 0.25 hour, 0.5 hour, 1 hour, 2 hours, 4 hours, 6 hours, 8 hours, 12 hours, and 24 hours after administration.
Rats were briefly anesthetized after inhalation of diethyl ether and 300 μL of blood sample was collected from the eyelids into test tubes. There was 30 μL of 1% heparin salt solution in the test tube. Tubes were dried at 60° C. overnight before use. After the blood sample was collected at the last time point, the rats were sacrificed after ether anesthesia.
Immediately after the collection of the blood sample, the test tube was gently inverted at least 5 times to ensure sufficient mixing and then placed on ice. The blood sample was centrifuged at 5000 rpm at 4° C. for 5 minutes to separate the plasma from the red blood cells. 100 μL of plasma was aspirated into a clean plastic centrifuge tube with a pipette, marking with the name of the compound and time point. Plasma was stored at −80° C. prior to analysis. The concentration of the compound of the present disclosure in plasma was determined by LC-MS/MS. The pharmacokinetic parameters were calculated based on the blood concentration of the drug for each animal at different time points.

In another data set the test system is KM12 cell line. The data set is described as follows: KM12 cell proliferation analysis (CellTiter-Glo). Format: cell-based. The following applies: Homo sapiens, 72 h. The procedure:
The CGT method was used to detect the in vitro anti-proliferative activity of the compounds of the present disclosure on tumor cells cultured in vitro. The KM12 cell line was maintained in RPMI-1640 medium containing 10% fetal bovine serum and antibiotics, the cells in the logarithmic growth phase were harvested and planted in a 96-well plate. The plate was incubated in an incubator at 37° C., containing 5% carbon dioxide gas overnight. After the test compounds were dissolved in DMSO, a 3-fold concentration gradient dilution with 9 compound concentrations was made. Pre-prepared compounds of different concentrations were transferred to the cell plate in triplicate for each concentration, and continue culturing for 72 h. The final concentration of DMSO in the system was 0.1%, and the initial concentration of the test compound was 300 nM.
CellTiter-Glo reagent was added to the cell plate, and incubated at room temperature for 30 minutes to stabilize the optical signal. Detection was carried out by PerkinElmer Envision microplate reader for determining the inhibitory activity of the compound of the present disclosure at various concentrations on cell proliferation. The inhibitory activity of compounds at different concentrations on cell proliferation was fitted according to Graphpad 5.0 software, and IC50 values were calculated.
On the technique in general: In ATP-based viability assays light output follows the ATP content of the culture.

In a further data set the target is TRKA kinase (Homo sapiens, UniProt P04629). The data set is described as follows: Biochemical kinase analysis (HTRF), TRKA. The settings on record: 23° C., read-out: Kinase IC50 (nM) TRK A. As for the experimental part:
(§1) Inhibition of TRKA, TRKB, TRKC kinases can be measured by HTRF ([…]) method. The reaction was performed in a 384-well plate at 23° C. with a volume of 20 μL. TRKA TRKB or TRKC kinase were mixed with pre-formulated and diluted compounds of different concentrations for ten minutes in duplicate for each concentration, wherein 11 concentrations made with a 3-fold gradient dilution from the starting concentration of 300 nM were made and the final concentration of DMSO was 2%. The corresponding substrate and ATP were added thereto, and reacted at room temperature for 20 minutes (both a negative and a positive control were set: negative control is blank control, positive control is Entrectinib). After the reaction, detection reagent was added thereto (reagent in HTRF Kinase TK kit), and after incubation at room temperature for 30 minutes, detection was carried out by PerkinElmer Envision microplate reader for determining enzyme activity in the presence of the compounds of the present disclosure at various concentrations, and the inhibitory activity of different concentrations of compounds against enzyme activity was calculated. After that, in accordance with four-factors function and Graphpad 5.0 software, inhibitory activity on enzyme activity under different concentrations of compounds was fitted and IC50 values were calculated.
(Time-resolved FRET reads energy transfer from a long-lived donor to a nearby acceptor.)

The target of the next data set is TRKB kinase (Homo sapiens, UniProt Q16620). The data set is described as follows: Biochemical kinase analysis (HTRF), TRKB. The following applies: 23° C., read-out: Kinase IC50 (nM) TRK B. As for the experimental part:
as §1

For a further data set, the target named is TRKC kinase (Homo sapiens, UniProt Q16288). The data set is described as follows: Biochemical kinase analysis (HTRF), TRKC. The following applies: 23° C., read-out: Kinase IC50 (nM) TRK C. The procedure: as §1
TRKC kinase, sequence (Q16288 32-839): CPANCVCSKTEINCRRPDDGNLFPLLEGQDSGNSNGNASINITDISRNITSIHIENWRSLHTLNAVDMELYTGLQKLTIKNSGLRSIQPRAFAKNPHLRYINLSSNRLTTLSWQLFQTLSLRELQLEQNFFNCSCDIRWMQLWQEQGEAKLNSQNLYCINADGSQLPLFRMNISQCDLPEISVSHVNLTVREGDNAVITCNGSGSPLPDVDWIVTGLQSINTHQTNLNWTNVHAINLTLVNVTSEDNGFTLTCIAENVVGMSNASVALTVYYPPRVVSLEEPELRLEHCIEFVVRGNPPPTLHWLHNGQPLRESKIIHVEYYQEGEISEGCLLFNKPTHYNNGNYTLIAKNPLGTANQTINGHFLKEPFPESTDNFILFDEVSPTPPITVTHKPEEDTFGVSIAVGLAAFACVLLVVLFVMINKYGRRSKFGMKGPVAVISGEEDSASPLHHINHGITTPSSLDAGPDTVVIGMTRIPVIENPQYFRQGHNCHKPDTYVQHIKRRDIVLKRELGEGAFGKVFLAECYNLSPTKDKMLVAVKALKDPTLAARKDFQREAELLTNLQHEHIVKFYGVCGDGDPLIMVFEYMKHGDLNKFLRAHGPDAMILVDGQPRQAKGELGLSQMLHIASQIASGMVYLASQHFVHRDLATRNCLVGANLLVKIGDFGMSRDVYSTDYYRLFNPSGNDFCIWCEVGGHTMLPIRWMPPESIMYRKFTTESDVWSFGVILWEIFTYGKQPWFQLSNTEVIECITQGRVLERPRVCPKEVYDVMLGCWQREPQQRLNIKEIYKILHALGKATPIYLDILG

Read-outs that look alike come from different tables or passages of the source. Some results are limits rather than exact numbers.

TRKA kinase, sequence (P04629 33-796): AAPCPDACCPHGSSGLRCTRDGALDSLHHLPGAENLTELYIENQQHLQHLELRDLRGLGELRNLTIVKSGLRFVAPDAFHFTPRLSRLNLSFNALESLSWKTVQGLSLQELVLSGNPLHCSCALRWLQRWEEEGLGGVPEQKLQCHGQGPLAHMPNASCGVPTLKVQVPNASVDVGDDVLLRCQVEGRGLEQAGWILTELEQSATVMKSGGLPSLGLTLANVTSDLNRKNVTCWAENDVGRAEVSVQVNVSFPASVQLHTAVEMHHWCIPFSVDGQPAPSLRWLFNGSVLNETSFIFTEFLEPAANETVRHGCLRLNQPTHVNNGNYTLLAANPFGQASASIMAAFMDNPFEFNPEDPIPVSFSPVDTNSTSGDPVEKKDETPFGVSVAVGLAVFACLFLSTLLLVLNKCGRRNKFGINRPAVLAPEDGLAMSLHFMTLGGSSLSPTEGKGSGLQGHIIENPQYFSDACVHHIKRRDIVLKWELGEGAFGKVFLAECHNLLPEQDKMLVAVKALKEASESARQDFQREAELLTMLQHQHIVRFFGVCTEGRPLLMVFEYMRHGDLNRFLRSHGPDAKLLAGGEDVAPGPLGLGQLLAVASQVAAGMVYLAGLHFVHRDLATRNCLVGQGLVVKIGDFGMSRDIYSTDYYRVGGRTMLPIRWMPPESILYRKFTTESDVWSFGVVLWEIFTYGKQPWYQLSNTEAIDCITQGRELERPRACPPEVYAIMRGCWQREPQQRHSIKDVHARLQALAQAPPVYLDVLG
TRKB kinase, sequence (Q16620 32-822): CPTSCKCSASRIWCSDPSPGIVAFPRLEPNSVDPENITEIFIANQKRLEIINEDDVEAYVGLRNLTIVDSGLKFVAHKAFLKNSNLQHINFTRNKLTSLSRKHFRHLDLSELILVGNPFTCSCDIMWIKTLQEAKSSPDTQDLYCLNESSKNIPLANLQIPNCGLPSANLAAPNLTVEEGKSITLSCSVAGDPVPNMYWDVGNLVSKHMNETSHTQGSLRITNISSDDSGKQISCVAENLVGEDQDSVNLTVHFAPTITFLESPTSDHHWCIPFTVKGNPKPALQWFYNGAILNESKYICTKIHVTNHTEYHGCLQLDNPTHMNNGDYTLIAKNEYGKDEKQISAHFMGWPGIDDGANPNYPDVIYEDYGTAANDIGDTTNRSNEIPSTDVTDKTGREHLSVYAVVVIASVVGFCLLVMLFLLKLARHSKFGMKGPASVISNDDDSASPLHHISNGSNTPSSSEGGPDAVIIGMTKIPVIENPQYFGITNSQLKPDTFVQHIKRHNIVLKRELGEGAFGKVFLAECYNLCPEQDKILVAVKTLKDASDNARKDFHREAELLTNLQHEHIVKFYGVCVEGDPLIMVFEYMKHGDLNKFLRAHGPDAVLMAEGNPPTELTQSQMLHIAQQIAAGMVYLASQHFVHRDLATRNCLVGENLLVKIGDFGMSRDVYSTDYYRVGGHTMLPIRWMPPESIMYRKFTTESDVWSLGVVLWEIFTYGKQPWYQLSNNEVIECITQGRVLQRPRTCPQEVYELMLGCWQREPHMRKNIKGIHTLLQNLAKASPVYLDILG

For the compound `C[C@H]1CC(=O)Nc2cnn3ccc(nc23)N2CCC[C@@H]2c2cc(F)ccc2O1` [Compound L-2-A, (6R,14S)-9-fluoro-14-methyl-13-oxa-2,17,20,21,24-pentaazapentacyclo[16.5.2.0^2,6.0^7,12.0^21,25]pentacosane-1(24),7,9,11,18(25),19,22-heptaene-16-one], in data set [1] (IV 3 mg/kg), the exposure AUC(0-t) amounted to 2480 ng·h/mL, the highest level (Cmax) was 1620 ng/mL, the Tmax was determined as 0.08 h and the half-life was 2.41 h. For the same compound, in data set [1] (IV 3 mg/kg), the AUC(0-inf) came to 2480 ng·h/mL, the MRT inf came to 1.2 h, the “Cl_pred (L/kg)” value is reported as 1.23 and the “Vz_pred” value was 1.85 L/kg. In addition, in data set [1] (PO 10 mg/kg), the AUC(0-t) came out at 4470 ng·h/mL, the peak concentration (Cmax) is 1410 ng/mL, the time to peak (Tmax) came to 0.5 h and the half-life is 2.02 h. In data set [1] (PO 10 mg/kg), the AUC(0-inf) turned out to be 4530 ng·h/mL, the MRT inf stood at 2.8 h, the “Cl_pred (L/kg)” value is reported as 2.44 and the “Vz_pred” value turned out to be 8.50 L/kg. In data set [1], this compound showed a bioavailability of 54.2%. Besides, the IC50 in the data set with KM12 cell line was 0.25 nM. In addition, the IC50 at TRKA kinase stood at 0.17 nM. For the same compound, the IC50 on TRKB kinase was found to be 0.1 nM. For the same compound, on TRKC kinase, the half-maximal inhibitory concentration (IC50) is 0.1 nM.
For the compound `C[C@H]1Nc2ccn3ncc(c3n2)NC(=O)CCOc2ccc(F)cc21` [Compound T-1, (13R)-11-fluoro-13-methyl-6,7,13,14-tetrahydro-1,15-ethenopyrazolo[4,3-f][1,4,8,10]benzoxatriazacyclotridecin-5(6H)-one], in data set [1] (IV 3 mg/kg), the AUC(0-t) was found to be 6240 ng·h/mL, the Cmax came to 2120 ng/mL, the Tmax was found to be 0.08 h and the half-life is 9.05 h. Further, in data set [1] (IV 3 mg/kg), the AUC(0-inf) amounted to 6350 ng·h/mL, the MRT inf was 4.04 h, the “Cl_pred (L/kg)” value was found to be 0.47 and the “Vz_pred” value is reported as 3.28 L/kg. Further, in data set [1] (PO 10 mg/kg), the AUC(0-t) turned out to be 11500 ng·h/mL, the maximum concentration (Cmax) stood at 1860 ng/mL, the Tmax is 1.67 h and the half-life was 0.36 h. In addition, in data set [1] (PO 10 mg/kg), the AUC(0-inf) was 13100 ng·h/mL, the MRT inf turned out to be 6.23 h, the “Cl_pred (L/kg)” value was determined as 0.77 and the “Vz_pred” value turned out to be 10.05 L/kg. This compound registered a bioavailability in data set [1] of 55.5%. This compound also gave an IC50 in the data set with KM12 cell line of 5.13 nM. For the same compound, the half-inhibitory concentration (IC50) on TRKA kinase was below 0.17 nM. For the same compound, the half-inhibitory concentration (IC50) on TRKB kinase is below 0.17 nM. In addition, the IC50 on TRKC kinase is below 0.17 nM.
As to `C[C@H]1CC(=O)Nc2cnn3ccc(nc23)N[C@H](C)c2cc(F)ccc2O1` [Compound T-2-A, (7S,13R)-11-fluoro-7,13-dimethyl-6,7,13,14-tetrahydro-1,15-ethenopyrazolo[4,3-f][1,4,8,10]benzoxatriazacyclotiidecin-5(6H)-one], in data set [1] (IV 3 mg/kg), the exposure AUC(0-t) was 6560 ng·h/mL, the highest concentration (Cmax) worked out at 2100 ng/mL, the Tmax was 0.08 h and the half-life is 5.59 h. For the same compound, in data set [1] (IV 3 mg/kg), the AUC(0-inf) was 6620 ng·h/mL, the MRT inf amounted to 3.44 h, the “Cl_pred (L/kg)” value stood at 0.45 and the “Vz_pred” value is given as 2.67 L/kg. Further, in data set [1] (PO 10 mg/kg), the AUC(0-t) is 11500 ng·h/mL, the Cmax is 994 ng/mL, the time to peak (Tmax) came to 2.17 h and the half-life is 4.84 h. In data set [1] (PO 10 mg/kg), the AUC(0-inf) came to 12900 ng·h/mL, the MRT inf was 7.37 h, the “Cl_pred (L/kg)” value is 0.83 and the “Vz_pred” value is 6.70 L/kg. Moreover, the bioavailability in data set [1] amounted to 52.7%. Besides, in the data set with KM12 cell line, it took 1.6 nM to reach half-maximal inhibition (IC50). The IC50 on TRKA kinase turned out to be 0.19 nM. The concentration for half-maximal inhibition (IC50) on TRKB kinase was 0.1 nM. On TRKC kinase, the IC50 was 0.06 nM.
